Our source for the Kd values is paper PMC4774911, “Biochemical Screening of Five Protein Kinases from Plasmodium falciparum against 14,000 Cell-Active Compounds” (PLoS ONE, 2016).

The structures appear in SMILES notation. Several values for one entry are separate records, joined by “and”; a condition that tells them apart may be missing. Equal entries are not always repeated.

Targets include KIT (Homo sapiens, UniProt P10721); JAK2 (Homo sapiens, UniProt O60674); BMP2K (Homo sapiens, UniProt Q9NSY1); PRKCA (Homo sapiens, UniProt P17252).
Experiment in all cases: biochemical
Parameters in all cases: endogenous in cells; host or cells: K562 cell extract; species or system K562 (extract); replicate k of n = 2 (each experiment ID is one independent experiment; two experiment IDs per compound)
Holding throughout (conditions): read-out: KDapp

Another test has as its target T1, PLK4 (Homo sapiens, UniProt O00444).
T1 sequence (O00444 1-970): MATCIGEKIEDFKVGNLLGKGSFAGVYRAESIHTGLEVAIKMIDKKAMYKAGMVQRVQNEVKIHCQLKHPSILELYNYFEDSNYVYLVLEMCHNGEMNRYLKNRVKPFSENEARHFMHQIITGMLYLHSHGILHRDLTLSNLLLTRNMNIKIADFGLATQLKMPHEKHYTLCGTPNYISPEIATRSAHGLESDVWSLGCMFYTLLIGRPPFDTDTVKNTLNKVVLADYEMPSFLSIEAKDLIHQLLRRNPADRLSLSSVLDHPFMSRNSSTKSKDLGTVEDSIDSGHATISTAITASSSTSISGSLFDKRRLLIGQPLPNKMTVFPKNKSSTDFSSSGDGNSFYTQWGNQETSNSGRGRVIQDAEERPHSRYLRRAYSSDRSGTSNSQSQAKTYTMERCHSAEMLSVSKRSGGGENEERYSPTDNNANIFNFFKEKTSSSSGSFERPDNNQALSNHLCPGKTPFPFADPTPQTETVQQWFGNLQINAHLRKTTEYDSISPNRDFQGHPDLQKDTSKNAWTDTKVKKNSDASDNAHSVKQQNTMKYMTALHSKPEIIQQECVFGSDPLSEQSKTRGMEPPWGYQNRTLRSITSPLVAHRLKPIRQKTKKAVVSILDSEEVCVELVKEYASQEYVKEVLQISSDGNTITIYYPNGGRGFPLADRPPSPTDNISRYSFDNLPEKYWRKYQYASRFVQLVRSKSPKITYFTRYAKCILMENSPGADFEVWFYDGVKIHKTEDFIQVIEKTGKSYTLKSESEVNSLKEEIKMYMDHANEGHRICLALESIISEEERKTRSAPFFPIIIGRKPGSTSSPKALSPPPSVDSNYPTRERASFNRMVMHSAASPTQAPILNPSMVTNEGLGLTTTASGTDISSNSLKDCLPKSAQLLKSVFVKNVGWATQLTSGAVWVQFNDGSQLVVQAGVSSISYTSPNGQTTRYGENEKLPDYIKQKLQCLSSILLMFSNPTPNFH

The next test concerns the target T2, IRAK4 (Homo sapiens, UniProt Q9NWZ3).
T2 sequence (Q9NWZ3 1-460): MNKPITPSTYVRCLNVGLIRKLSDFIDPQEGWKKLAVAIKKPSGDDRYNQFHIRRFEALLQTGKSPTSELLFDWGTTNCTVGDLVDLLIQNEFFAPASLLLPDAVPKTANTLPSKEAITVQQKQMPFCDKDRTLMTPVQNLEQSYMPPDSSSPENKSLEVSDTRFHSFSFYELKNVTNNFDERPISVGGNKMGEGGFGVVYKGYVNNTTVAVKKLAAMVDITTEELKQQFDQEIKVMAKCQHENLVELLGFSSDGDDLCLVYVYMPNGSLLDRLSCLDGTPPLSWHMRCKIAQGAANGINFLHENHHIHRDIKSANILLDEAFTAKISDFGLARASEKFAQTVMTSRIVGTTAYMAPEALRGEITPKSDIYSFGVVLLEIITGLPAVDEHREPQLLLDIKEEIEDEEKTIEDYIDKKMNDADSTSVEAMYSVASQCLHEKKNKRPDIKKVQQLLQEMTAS

The target of the next test is T3, CHEK1 (Homo sapiens, UniProt O14757).
T3 sequence (O14757 1-476): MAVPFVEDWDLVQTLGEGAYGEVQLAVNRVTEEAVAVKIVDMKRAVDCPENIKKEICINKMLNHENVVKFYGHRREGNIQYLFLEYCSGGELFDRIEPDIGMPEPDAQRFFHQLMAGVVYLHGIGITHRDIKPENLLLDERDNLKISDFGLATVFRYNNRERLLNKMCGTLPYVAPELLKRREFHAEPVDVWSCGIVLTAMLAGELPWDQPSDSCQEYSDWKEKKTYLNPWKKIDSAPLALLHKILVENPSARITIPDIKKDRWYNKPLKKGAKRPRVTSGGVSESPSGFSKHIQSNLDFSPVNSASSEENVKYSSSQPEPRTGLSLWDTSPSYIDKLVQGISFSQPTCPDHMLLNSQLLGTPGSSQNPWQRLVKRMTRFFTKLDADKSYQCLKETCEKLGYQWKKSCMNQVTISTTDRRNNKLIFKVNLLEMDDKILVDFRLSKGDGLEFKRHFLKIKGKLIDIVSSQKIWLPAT

Sequence of BMP2K (Q9NSY1 whole entry): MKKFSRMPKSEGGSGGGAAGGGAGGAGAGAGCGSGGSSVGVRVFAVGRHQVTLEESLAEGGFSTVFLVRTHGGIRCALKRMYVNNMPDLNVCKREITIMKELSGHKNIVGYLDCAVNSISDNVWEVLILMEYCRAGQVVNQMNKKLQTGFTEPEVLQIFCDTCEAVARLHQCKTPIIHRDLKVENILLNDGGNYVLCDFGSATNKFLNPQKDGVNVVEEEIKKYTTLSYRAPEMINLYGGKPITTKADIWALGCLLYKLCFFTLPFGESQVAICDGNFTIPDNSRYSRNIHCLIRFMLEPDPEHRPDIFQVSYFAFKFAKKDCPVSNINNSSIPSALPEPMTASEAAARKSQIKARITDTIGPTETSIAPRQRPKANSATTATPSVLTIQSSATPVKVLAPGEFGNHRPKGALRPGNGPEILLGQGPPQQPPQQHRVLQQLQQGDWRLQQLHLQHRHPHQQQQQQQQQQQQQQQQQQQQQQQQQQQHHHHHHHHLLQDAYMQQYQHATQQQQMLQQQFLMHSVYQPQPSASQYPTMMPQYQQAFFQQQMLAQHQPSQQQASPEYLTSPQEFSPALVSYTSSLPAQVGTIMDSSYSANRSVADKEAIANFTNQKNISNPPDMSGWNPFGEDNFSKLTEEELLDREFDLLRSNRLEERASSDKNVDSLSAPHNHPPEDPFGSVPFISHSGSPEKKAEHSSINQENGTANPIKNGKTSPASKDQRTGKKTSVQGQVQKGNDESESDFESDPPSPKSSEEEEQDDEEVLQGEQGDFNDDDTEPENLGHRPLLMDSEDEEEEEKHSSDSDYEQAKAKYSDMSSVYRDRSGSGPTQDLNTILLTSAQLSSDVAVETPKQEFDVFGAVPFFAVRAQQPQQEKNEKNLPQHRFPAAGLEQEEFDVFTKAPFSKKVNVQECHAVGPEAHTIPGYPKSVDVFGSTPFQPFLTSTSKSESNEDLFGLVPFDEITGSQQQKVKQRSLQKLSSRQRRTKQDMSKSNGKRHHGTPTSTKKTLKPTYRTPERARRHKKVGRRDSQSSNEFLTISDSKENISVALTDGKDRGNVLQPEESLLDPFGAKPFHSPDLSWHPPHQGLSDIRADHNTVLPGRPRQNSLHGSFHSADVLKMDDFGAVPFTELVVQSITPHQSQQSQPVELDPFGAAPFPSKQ
Sequence of JAK2 (O60674 whole entry): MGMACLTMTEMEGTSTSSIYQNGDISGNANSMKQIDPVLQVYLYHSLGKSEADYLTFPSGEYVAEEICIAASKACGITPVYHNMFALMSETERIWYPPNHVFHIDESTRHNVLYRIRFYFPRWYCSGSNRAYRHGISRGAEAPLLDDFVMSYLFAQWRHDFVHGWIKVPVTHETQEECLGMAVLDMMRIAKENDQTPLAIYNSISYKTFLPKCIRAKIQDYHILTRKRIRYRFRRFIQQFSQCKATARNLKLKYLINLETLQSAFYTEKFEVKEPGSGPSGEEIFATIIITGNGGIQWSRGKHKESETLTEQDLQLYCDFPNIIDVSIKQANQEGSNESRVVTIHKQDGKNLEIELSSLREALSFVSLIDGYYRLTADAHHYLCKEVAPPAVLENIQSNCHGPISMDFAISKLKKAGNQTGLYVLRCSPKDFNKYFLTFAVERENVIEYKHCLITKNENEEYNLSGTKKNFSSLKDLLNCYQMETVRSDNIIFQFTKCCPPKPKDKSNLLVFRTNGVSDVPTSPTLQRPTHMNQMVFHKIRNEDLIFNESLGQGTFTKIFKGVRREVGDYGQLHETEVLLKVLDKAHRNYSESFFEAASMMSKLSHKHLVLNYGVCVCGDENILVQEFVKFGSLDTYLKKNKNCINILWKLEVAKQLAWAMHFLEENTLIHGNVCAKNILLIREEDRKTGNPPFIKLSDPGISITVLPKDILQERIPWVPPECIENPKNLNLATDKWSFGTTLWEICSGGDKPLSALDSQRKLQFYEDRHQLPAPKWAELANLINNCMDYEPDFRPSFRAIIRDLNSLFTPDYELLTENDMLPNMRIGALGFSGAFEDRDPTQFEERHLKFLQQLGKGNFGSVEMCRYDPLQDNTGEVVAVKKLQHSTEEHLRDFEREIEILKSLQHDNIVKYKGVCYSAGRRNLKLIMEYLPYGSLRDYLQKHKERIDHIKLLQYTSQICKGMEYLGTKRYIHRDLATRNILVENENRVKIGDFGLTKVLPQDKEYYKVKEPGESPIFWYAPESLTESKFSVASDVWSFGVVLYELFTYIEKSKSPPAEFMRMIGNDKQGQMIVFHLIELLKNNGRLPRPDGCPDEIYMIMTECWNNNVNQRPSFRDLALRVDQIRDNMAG
Sequence of KIT (P10721 whole entry): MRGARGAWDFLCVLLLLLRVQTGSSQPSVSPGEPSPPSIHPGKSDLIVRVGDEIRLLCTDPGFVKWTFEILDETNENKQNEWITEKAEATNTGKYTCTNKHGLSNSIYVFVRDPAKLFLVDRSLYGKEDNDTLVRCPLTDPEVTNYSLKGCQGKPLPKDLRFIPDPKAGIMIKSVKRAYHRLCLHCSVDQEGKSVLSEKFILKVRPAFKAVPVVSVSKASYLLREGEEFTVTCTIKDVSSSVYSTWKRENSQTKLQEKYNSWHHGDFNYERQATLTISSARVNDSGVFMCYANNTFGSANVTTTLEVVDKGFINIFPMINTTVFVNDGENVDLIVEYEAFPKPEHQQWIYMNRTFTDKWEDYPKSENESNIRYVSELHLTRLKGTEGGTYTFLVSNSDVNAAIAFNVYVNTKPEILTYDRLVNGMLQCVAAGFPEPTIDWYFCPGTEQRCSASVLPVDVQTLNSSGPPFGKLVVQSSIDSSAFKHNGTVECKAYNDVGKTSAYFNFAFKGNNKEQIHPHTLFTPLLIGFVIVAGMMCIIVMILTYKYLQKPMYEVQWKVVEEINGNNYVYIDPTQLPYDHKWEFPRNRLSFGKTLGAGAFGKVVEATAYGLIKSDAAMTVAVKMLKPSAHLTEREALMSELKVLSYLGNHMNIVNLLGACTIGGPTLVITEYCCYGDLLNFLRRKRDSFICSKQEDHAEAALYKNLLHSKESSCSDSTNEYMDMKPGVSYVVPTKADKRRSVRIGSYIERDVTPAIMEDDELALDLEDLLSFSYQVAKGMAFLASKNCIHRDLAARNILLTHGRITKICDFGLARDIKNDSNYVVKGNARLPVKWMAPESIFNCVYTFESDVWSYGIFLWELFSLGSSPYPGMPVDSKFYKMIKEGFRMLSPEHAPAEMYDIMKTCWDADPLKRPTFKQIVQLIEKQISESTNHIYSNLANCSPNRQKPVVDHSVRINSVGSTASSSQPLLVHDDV

For `CN1CCN(c2ccc(Nc3ncc(C#N)c(Nc4ccccc4C(N)=O)n3)cc2)CC1.Cl` [TCMDC-134116], the Kd at KIT was 1100 nM; at JAK2, 285 nM and 185 nM; on PLK4, 53.9 nM and 69.2 nM; at IRAK4 it was 96.4 nM; on BMP2K, 112 nM and 92.8 nM; at PRKCA, 393 nM. Further, at CHEK1, the Kd came to 92 nM.
